Laboratory results reported in patent US10722501B2 (BAYER AKTIENGESELLSCHAFT, priority 2016, dated 2020).

Target: T1, recombinant full-length human prolyl endopeptidase (PREP) (Homo sapiens, UniProt P48147)
T1 construct: To recombinant full-length human prolyl endopeptidase (PREP, R&D-Systems, 4308-SE); purchased R&D-Systems 4308-SE
T1 sequence (P48147 1-710): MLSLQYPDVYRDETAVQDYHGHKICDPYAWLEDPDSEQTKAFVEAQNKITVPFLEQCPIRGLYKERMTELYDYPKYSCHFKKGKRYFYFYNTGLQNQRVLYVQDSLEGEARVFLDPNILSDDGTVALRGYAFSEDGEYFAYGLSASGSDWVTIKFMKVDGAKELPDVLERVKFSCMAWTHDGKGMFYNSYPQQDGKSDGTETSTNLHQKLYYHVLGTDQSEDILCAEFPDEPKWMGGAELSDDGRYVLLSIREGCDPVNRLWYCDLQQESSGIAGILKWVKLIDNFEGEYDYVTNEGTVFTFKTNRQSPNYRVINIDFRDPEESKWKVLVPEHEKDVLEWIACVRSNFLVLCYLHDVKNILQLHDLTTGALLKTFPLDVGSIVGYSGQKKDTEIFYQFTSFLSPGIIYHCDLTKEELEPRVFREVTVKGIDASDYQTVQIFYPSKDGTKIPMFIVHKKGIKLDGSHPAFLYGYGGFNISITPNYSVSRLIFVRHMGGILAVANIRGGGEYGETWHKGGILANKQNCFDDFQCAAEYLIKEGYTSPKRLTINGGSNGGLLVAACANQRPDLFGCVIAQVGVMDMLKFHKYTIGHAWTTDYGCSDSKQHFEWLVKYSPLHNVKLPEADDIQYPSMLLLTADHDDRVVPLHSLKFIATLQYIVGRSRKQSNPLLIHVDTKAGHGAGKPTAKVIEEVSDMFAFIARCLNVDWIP
Assay: Biochemical human prolyl endopeptidase (PREP) assay with fluorescently labelled substrate
Conditions: substrate Z-Gly-Pro-AMC 50 μM, 32° C., 60 min; some as mean values from multiple independent determinations
Experimental: B-1 Biochemical Human Prolyl Endopeptidase (PREP) Assay for Identification of Inhibitors of PREP Activity Using a Fluorescently Labelled Substrate Principle of the Assay:
The enzymatic conversion of the fluorescent peptide substrate was observed on the basis of the measurement of the fluorescence intensity. The enzyme activity was determined by the ascertaining of the initial slope in the increase in fluorescence. Compounds that inhibit PREP were identified on the basis of the decrease in the initial slope compared to a reaction mixture without test compound.
Determination of Activity:
IC50 values were determined by the plotting of the percentage PREP activity against the concentration of the test substance by interpolation.
To recombinant full-length human prolyl endopeptidase (PREP, R&D-Systems, 4308-SE; final concentration, for example, 0.4 nM, volume: 25 μl) in reaction buffer (50 mM Tris-HCl, pH 7.5; 150 mM NaCl; 0.13% BSA, 5 mM EDTA, 3 mM GSH, 0.005% Brij-35) was added a test compound (in DMSO, in an appropriate final concentration range from 1 nM to 30 μM, volume: 1 μl) in a well of a 384-well microtitre plate. The reaction was initiated by adding the substrate Z-Gly-Pro-AMC (final concentration 50 μM; Z=carboxybenzyl; AMC=7-amino-4-methylcoumarin, volume: 25 μl). The progress of the PREP reaction was observed by measuring the fluorescence intensity in a Tecan SAFIRE II plate spectrophotometer at 32° C. over a period of 60 min (excitation wavelength: 360 nm, emission wavelength: 465 nm).
Table B-1 below collates the IC50 values thus obtained from the human prolyl endopeptidase assay for individual working examples of the invention (some as mean values from multiple independent individual determinations).

Row | IC50 [nM] | Structure (SMILES)
1 | 14 | O=C([C@@H]1CCC(F)(F)c2nn(Cc3ccc(Cl)cn3)c(=O)n21)N1CCC(F)(F)C1 [Example 586, (5S)-2-[(5-Chloropyridin-2-yl)methyl]-5-[(3,3-difluoropyrrolidin-1-yl)carbonyl]-8,8-difluoro-5,6,7,8-tetrahydro[1,2,4]triazolo[4,3-a]pyridin-3(2H)-one]
2 | 2.1 | CC1Cc2nn(Cc3ccnc(C(F)(F)F)c3F)c(=O)n2C(C(=O)N2C[C@@H](F)[C@@H](F)C2)C1 (mixture of isomers) [Example 333, (5RS,7RS)-5-{[(3R,4S)-3,4-Difluoropyrrolidin-1-yl]carbonyl}-2-{[3-fluoro-2-(trifluoromethyl)pyridin-4-yl]methyl}-7-methyl-5,6,7,8-tetrahydro[1,2,4]triazolo[4,3-a]pyridin-3(2H)-one]
3 | 4.8 | COc1ccc(CCn2nc3n(c2=O)[C@H](C(=O)N2CC(F)C2)CCC3)cc1 [Example 347, (5S)-5-[(3-Fluoroazetidin-1-yl)carbonyl]-2-[2-(4-methoxyphenyl)ethyl]-5,6,7,8-tetrahydro[1,2,4]triazolo[4,3-a]pyridin-3(2H)-one]
4 | 0.625 | O=C([C@@H]1CCCc2nn(Cc3ccc(C(F)(F)F)c(Cl)c3)c(=O)n21)N1CC[C@H](F)C1 [Example 461, (5S)-2-[3-Chloro-4-(trifluoromethyl)benzyl]-5-{[(3S)-3-fluoropyrrolidin-1-yl]carbonyl}-5,6,7,8-tetrahydro[1,2,4]triazolo[4,3-a]pyridin-3(2H)-one]
5 | 38 | Cc1ccc(Cn2nc3n(c2=O)[C@H](C(=O)N2CCC(O)(C(F)(F)F)C2)CCC3)cc1 (mixture of isomers) [Example 152, (5S)-5-{[(3RS)-3-Hydroxy-3-(trifluoromethyl)pyrrolidin-1-yl]carbonyl}-2-(4-methylbenzyl)-5,6,7,8-tetrahydro[1,2,4]triazolo[4,3-a]pyridin-3(2H)-one]
6 | 18 | Cc1cc(Cn2nc3n(c2=O)C(C(=O)N2CC(F)C2)CCC3)on1 (racemic) [Example 417, (5RS)-5-[(3-Fluoroazetidin-1-yl)carbonyl]-2-[(3-methyl-1,2-oxazol-5-yl)methyl]-5,6,7,8-tetrahydro[1,2,4]triazolo[4,3-a]pyridin-3(2H)-one]
7 | 0.19 | O=C([C@@H]1CCCc2nn(Cc3cccc(C(F)(F)F)c3)c(=O)n21)N1CC[C@H](F)C1 [Example 444, (5S)-5-{[(3S)-3-Fluoropyrrolidin-1-yl]carbonyl}-2-[3-(trifluoromethyl)benzyl]-5,6,7,8-tetrahydro[1,2,4]triazolo[4,3-a]pyridin-3(2H)-one]
8 | 12 | O=C([C@@H]1CCc2nn(Cc3ccc(C(F)(F)F)nc3)c(=O)n21)N1CCCC1 [Example 50, (5S)-5-(Pyrrolidin-1-ylcarbonyl)-2-{[6-(trifluoromethyl)pyridin-3-yl]methyl}-2,5,6,7-tetrahydro-3H-pyrrolo[2,1-c][1,2,4]triazol-3-one]
9 | 0.091 | Cc1ccc(Cn2nc3n(c2=O)[C@H](C(=O)N2CCC4CC42)CCC3)cc1 (single isomer, unassigned) [Example 188]
10 | 25 | COC1CN(C(=O)C2CCCc3nn(Cc4ccc(C)cc4)c(=O)n32)C1 (racemic) [Example 125, (5RS)-5-[(3-Methoxyazetidin-1-yl)carbonyl]-2-(4-methylbenzyl)-5,6,7,8-tetrahydro[1,2,4]triazolo[4,3-a]pyridin-3(2H)-one]
11 | 34.5 | CC1Cc2nn(Cc3ccc(C(F)(F)F)nc3)c(=O)n2C(C(=O)N2CC(O)C2)C1 (single isomer, unassigned) [Example 135, (5RS,7RS)-5-[(3-Hydroxyazetidin-1-yl)carbonyl]-7-methyl-2-{[6-(trifluoromethyl)pyridin-3-yl]methyl}-5,6,7,8-tetrahydro[1,2,4]triazolo[4,3-a]pyridin-3(2H)-one]
12 | 1.45 | Cc1ccc(Cn2nc3n(c2=O)C(C(=O)N2CCC(F)(F)C2)CCC3)cc1 (racemic) [Example 42, (5RS)-5-[(3,3-Difluoropyrrolidin-1-yl)carbonyl]-2-(4-methylbenzyl)-5,6,7,8-tetrahydro[1,2,4]triazolo[4,3-a]pyridin-3(2H)-one]
